These are literature values, as cited in patent publication US11807631B2, “Herboxidiene derivatives and uses thereof” (Purdue Research Foundation, priority 2017, dated 2023).

The series deals with human normal fibroblast cell line, W1-38.

The structures appear in SMILES notation.

On to `COC(C(C)O)C(C)C1OC1(C)CC(C)/C=C/C=C(\C)C1OC(CC(=O)O)CCC1C` (stereo not shown) [Herboxidiene/GEX1A], for which the cell cycle arrest result is “induces both G1 and G2/M cell cycle arrest”.
